Measured values reported in ChEMBL document CHEMBL1201862, “PubChem BioAssay data set” (2004).
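How tested: cells in 96-well plates exposed to compound for 48 hours at five concentrations. GI50 = concentration required for 50% inhibition of growth.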 Activity calls are given as the source filed them. Rule as the data show it: active = GI50 up to about 1.1 µM and inactive = higher.

Assays:
Experiment in all cases: NCI anticancer screen, dose series, 48 h
[1] = tested on: ACHN
[2] = tested on: HCT-15
[3] = tested on: HOP-92
[4] = tested on: K562
[5] = tested on: KM12
[6] = tested on: MOLT-4
[7] = tested on: NCI-H226
[8] = tested on: NCI-H23
[9] = tested on: NCI/ADR-RES
[10] = tested on: SF-268
[11] = tested on: SF-539
[12] = tested on: SK-MEL-2
[13] = tested on: SNB-75
[14] = tested on: SR
[15] = tested on: UACC-257
[16] = tested on: UACC-62
[17] = tested on: HT-29
[18] = tested on: IGROV-1
[19] = tested on: NCI-H522
[20] = tested on: SW-620

| SMILES | GI50 [1] | GI50 [2] [µM] | GI50 [3] | GI50 [4] | GI50 [5] | GI50 [6] | GI50 [7] | GI50 [8] | GI50 [9] | GI50 [10] | GI50 [11] | GI50 [12] | GI50 [13] | GI50 [14] | GI50 [15] | GI50 [16] | GI50 [17] | GI50 [18] | GI50 [19] | GI50 [20] |
| --- | --- | --- | --- | --- | --- | --- | --- | --- | --- | --- | --- | --- | --- | --- | --- | --- | --- | --- | --- | --- |
| CN(C)CCCn1c(-c2ccc(Br)cc2)cs/c1=N\c1ccccc1 | 16.8 µM (inactive) | 21.1 | 15.2 µM (inactive) | 11.6 µM (inactive) | 13 µM (inactive) | 15.4 µM (inactive) | 13.2 µM (inactive) | 10.7 µM (inactive) | 14.3 µM (inactive) | 17.1 µM (inactive) | 14 µM (inactive) | 15.7 µM (inactive) | 15.8 µM (inactive) | 14 µM (inactive) | 14.6 µM (inactive) | 13.7 µM (inactive) | – | – | – | – |
| O=C1OCC=C1COC1OC(CO)C(O)C(O)C1O (stereo unspecified) | > 100 µM (inactive) | > 100 | > 100 µM (inactive) | > 100 µM (inactive) | > 100 µM (inactive) | > 100 µM (inactive) | > 100 µM (inactive) | > 100 µM (inactive) | > 100 µM (inactive) | > 100 µM (inactive) | > 100 µM (inactive) | > 100 µM (inactive) | > 100 µM (inactive) | 36.2 µM (inactive) | > 100 µM (inactive) | – | > 100 µM (inactive) | > 100 µM (inactive) | 17.2 µM (inactive) | > 100 µM (inactive) |
| Cc1cc(S(=O)(=O)NC2=NCc3nc4ccccc4n32)c(S)cc1Cl | 32.4 µM (inactive) | 24.7 | 18.7 µM (inactive) | 42.9 µM (inactive) | 21.2 µM (inactive) | 19.6 µM (inactive) | 20 µM (inactive) | – | 19.6 µM (inactive) | 32 µM (inactive) | 20.7 µM (inactive) | 13.5 µM (inactive) | 24.2 µM (inactive) | 20.9 µM (inactive) | 24.2 µM (inactive) | 17.1 µM (inactive) | – | 24.8 µM (inactive) | 34.9 µM (inactive) | 47.6 µM (inactive) |
| CCOC(=O)c1csc(NC(=O)CN2CCCC2)n1 | > 100 µM (inactive) | > 100 | > 100 µM (inactive) | > 100 µM (inactive) | > 100 µM (inactive) | > 100 µM (inactive) | > 100 µM (inactive) | > 100 µM (inactive) | > 100 µM (inactive) | > 100 µM (inactive) | > 100 µM (inactive) | > 100 µM (inactive) | > 100 µM (inactive) | > 100 µM (inactive) | > 100 µM (inactive) | > 100 µM (inactive) | > 100 µM (inactive) | > 100 µM (inactive) | – | > 100 µM (inactive) |
| O=C1c2cc3c(cc2CC12Cc1ccc4c(c1C2=O)CCC4)CCCC3 (stereo unspecified) | > 100 µM (inactive) | > 100 | > 100 µM (inactive) | > 100 µM (inactive) | – | > 100 µM (inactive) | – | > 100 µM (inactive) | > 100 µM (inactive) | > 100 µM (inactive) | > 100 µM (inactive) | > 100 µM (inactive) | 5.7 µM (inactive) | 60 µM (inactive) | > 100 µM (inactive) | – | > 100 µM (inactive) | > 100 µM (inactive) | > 100 µM (inactive) | > 100 µM (inactive) |
| COc1ccc(-c2c(-c3ccccc3)c(C)c3ccccn23)cc1 | > 100 µM (inactive) | 56.9 | > 100 µM (inactive) | 50 µM (inactive) | 26.3 µM (inactive) | 59.6 µM (inactive) | > 100 µM (inactive) | > 100 µM (inactive) | > 100 µM (inactive) | – | > 100 µM (inactive) | 33 µM (inactive) | > 100 µM (inactive) | 26.4 µM (inactive) | 49.9 µM (inactive) | > 100 µM (inactive) | 33.4 µM (inactive) | > 100 µM (inactive) | 57.7 µM (inactive) | 58.9 µM (inactive) |
| COC(=O)C(NC(=O)OC(C)(C)C)P(=O)(OC)OC (stereo unspecified) | > 100 µM (inactive) | > 100 | > 100 µM (inactive) | > 100 µM (inactive) | > 100 µM (inactive) | > 100 µM (inactive) | > 100 µM (inactive) | > 100 µM (inactive) | > 100 µM (inactive) | > 100 µM (inactive) | – | > 100 µM (inactive) | – | > 100 µM (inactive) | > 100 µM (inactive) | > 100 µM (inactive) | > 100 µM (inactive) | > 100 µM (inactive) | > 100 µM (inactive) | > 100 µM (inactive) |
| COCCN(C(=O)c1ccccc1)C1CCC(=O)c2[nH]c3ccccc3c21 (stereo unspecified) | 16.7 µM (inactive) | 16.4 | 12.1 µM (inactive) | 3.85 µM (inactive) | 8.41 µM (inactive) | 6.64 µM (inactive) | 6.28 µM (inactive) | 17.7 µM (inactive) | 19.3 µM (inactive) | 9.12 µM (inactive) | 7.1 µM (inactive) | 5.38 µM (inactive) | 5.62 µM (inactive) | 3.2 µM (inactive) | > 46.9 µM (inactive) | 17.8 µM (inactive) | 9.98 µM (inactive) | 3.65 µM (inactive) | 2.59 µM (inactive) | 8.28 µM (inactive) |
| Cc1ccc(S(=O)(=O)NCCCSCCN)cc1 | > 100 µM (inactive) | > 100 | > 100 µM (inactive) | > 100 µM (inactive) | > 100 µM (inactive) | > 100 µM (inactive) | > 100 µM (inactive) | > 100 µM (inactive) | > 100 µM (inactive) | > 100 µM (inactive) | – | – | > 100 µM (inactive) | > 100 µM (inactive) | > 100 µM (inactive) | – | > 100 µM (inactive) | – | > 100 µM (inactive) | > 100 µM (inactive) |
| c1ccc2c(c1)c1c(n2CCOCCCN2CCCCC2)CCCC1 | 15.1 µM (inactive) | 14.2 | 22.7 µM (inactive) | 14 µM (inactive) | 15 µM (inactive) | 4.36 µM (inactive) | 16.3 µM (inactive) | 17.6 µM (inactive) | 17.9 µM (inactive) | 28.2 µM (inactive) | 15.7 µM (inactive) | 18.7 µM (inactive) | 16 µM (inactive) | 15.2 µM (inactive) | 16.8 µM (inactive) | – | 12 µM (inactive) | 14.7 µM (inactive) | 15.3 µM (inactive) | 19.5 µM (inactive) |
| N#C[C@H](c1ccccn1)c1nc2ccccc2nc1Cl | > 100 µM (inactive) | > 100 | > 100 µM (inactive) | – | 36.5 µM (inactive) | > 100 µM (inactive) | > 100 µM (inactive) | > 100 µM (inactive) | > 100 µM (inactive) | – | > 100 µM (inactive) | > 100 µM (inactive) | > 100 µM (inactive) | > 100 µM (inactive) | > 100 µM (inactive) | > 100 µM (inactive) | > 100 µM (inactive) | > 100 µM (inactive) | > 100 µM (inactive) | > 100 µM (inactive) |
| COc1ccc(NC(=S)c2ccc([N+](=O)[O-])o2)cc1 | 2.01 µM (inactive) | 0.895 | 7.8 µM (inactive) | 2.07 µM (inactive) | 1.6 µM (inactive) | 3.22 µM (inactive) | 0.82 µM (active) | 1.6 µM (inactive) | 0.678 µM (active) | 2.04 µM (inactive) | 0.178 µM (active) | 1.69 µM (inactive) | 3.19 µM (inactive) | 0.927 µM (active) | 2.7 µM (inactive) | 1.77 µM (inactive) | 1.26 µM (inactive) | 1.82 µM (inactive) | 1.29 µM (inactive) | 0.918 µM (active) |
| COC(=O)c1ccc(NCc2cc(OC)ccc2OC)cc1 | 34.5 µM (inactive) | 30.6 | 42.7 µM (inactive) | 35.6 µM (inactive) | 31.1 µM (inactive) | 33.3 µM (inactive) | 69.8 µM (inactive) | 65 µM (inactive) | 30.3 µM (inactive) | > 100 µM (inactive) | 68.5 µM (inactive) | 54.6 µM (inactive) | 34.2 µM (inactive) | 38 µM (inactive) | 52.1 µM (inactive) | 44.8 µM (inactive) | 28.8 µM (inactive) | > 100 µM (inactive) | 38.4 µM (inactive) | 58.2 µM (inactive) |
| COc1ccc(C2C3CCc4ccccc4C3=NN2S(=O)(=O)c2cccc(C(=O)O)c2OC)cc1 (stereo unspecified) | 7.83 µM (inactive) | 0.24 | 15.7 µM (inactive) | 4.06 µM (inactive) | 2.48 µM (inactive) | 9.02 µM (inactive) | 19.8 µM (inactive) | 52.4 µM (inactive) | 2.81 µM (inactive) | 14 µM (inactive) | 6.21 µM (inactive) | 15.7 µM (inactive) | – | 3.8 µM (inactive) | – | 6.14 µM (inactive) | 5 µM (inactive) | 1.09 µM (active) | 3.19 µM (inactive) | 6.98 µM (inactive) |
| CC(C)N(C)C(=O)C12C3C4C1C1C2C3C41C#N (stereo unspecified) | > 100 µM (inactive) | > 100 | > 100 µM (inactive) | > 100 µM (inactive) | > 100 µM (inactive) | > 100 µM (inactive) | – | > 100 µM (inactive) | > 100 µM (inactive) | > 100 µM (inactive) | > 100 µM (inactive) | > 100 µM (inactive) | 7.64 µM (inactive) | > 100 µM (inactive) | > 100 µM (inactive) | > 100 µM (inactive) | > 100 µM (inactive) | > 100 µM (inactive) | > 100 µM (inactive) | > 100 µM (inactive) |
